This test concerns P. aeruginosa PA14. Put plainly: Potentiation of gentamycin on pre-formed biofilm. The format is cell-based, Pseudomonas aeruginosa. Particulars: 9 hr biofilm, M63 + arginine; BIF ~1 μM, Gm 0.1 mg/ml; 14 hours of incubation. How it is done: FIG. 10 is a bar graph showing the ability of purified BIF to potentiate the activity of gentamycin (Gm). A biofilm of P. aeruginosa PA14 was pre-formed by growing the bacteria for 9 hrs in minimal M63 medium supplemented with arginine (0.4%) in 96 well dishes (100 μl of medium per well). After 9 hrs, half of the media was removed and replaced with fresh medium containing Gm (0.1 mg/ml final concentration), BIF (˜1 μM final concentration), or both compounds. The biofilm was quantitated after an additional 14 hrs of incubation.
We predicted that addition of purified BIF might potentiate the effects of antimicrobial compounds. To test this hypothesis, we pre-formed a biofilm of P. aeruginosa by growing the bacteria for 9 hrs by growth in minimal M63 medium supplemented with arginine (0.4%) in 96 well dishes. The preformed biofilms were then treated with BIF alone or BIF plus gentamycin (Gm) at 0.1 mg/ml final concentration. At the concentrations tested, BIF (˜1 μM) and Gm (0.1 mg/ml) had no effect on pre-formed biofilms of P. aeruginosa when these compounds were used individually (FIG. 10).

For the substance gentamycin [Gm], the “effect on pre-formed biofilms of P. aeruginosa” value is given as “no effect”.

The record behind these values is patent US20020123077A1, “Novel compounds capable of modulating biofilms” (priority 2000, published 2002).
